From patent US20220380432A1, “Acylated Calcitonin Mimetics” (KeyBioscience AG, priority 2018, published 2022)
Numbered stars: 1 amine (or outer) side, 2 acyl side, 3 side chain; on linkers, the order of the positions; unused ones are H or OH. Bridge positions count the residues as written; N and C are the ends. Square brackets hold non-standard residues; d marks the D form. Side chains are listed from the residue outwards. Peptide text beside a SMILES is read from it. * marks the point of attachment. C18 diacid = O=C(O)CCCCCCCCCCCCCCCCC(=O)*; γGlu = O=C(O)[C@H](CCC(=O)[*:2])N[*:1]; AEEA = NCCOCCOCC(=O)O; Aib = CC(C)(N)C(=O)O

Test system: serum albumin from humans (HSA)
Assay type: binding, man (Homo sapiens)
Protocol: FIG. 14: Competitive ligand binding assay using radio labelled salmon calcitonin (^125I-sCT) as tracer and conducted 2% serum albumin from two different species, rat (Rattus norvegicus) and man (Homo sapiens). As a tracer 0.25 nM ^125I-sCT was used. A) Competitive binding assay conducted in 2% RSA. B) Competitive binding assay conducted in 2% HSA. Data as +/−SEM. To investigate whether the improved efficacy in the acute setting of acylation 4 and 5 could be translated to man, a competitive ligand binding assay was conducted to explore acylation binding to serum albumin in rodent and man.

`CC(=O)N[C@H]1CSSC[C@@H](C(=O)NC(C)(C)C(=O)N[C@@H](CC(C)C)C(=O)NCC(=O)N[C@@H](CCCCNC(=O)COCCOCCNC(=O)COCCOCCNC(=O)CC[C@H](NC(=O)CCCCCCCCCCCCCCCCC(=O)O)C(=O)O)C(=O)N[C@@H](CC(C)C)C(=O)N[C@@H](CO)C(=O)N[C@@H](CCC(N)=O)C(=O)N[C@@H](CC(=O)O)C(=O)N[C@@H](CC(C)C)C(=O)N[C@@H](Cc2c[nH]cn2)C(=O)N[C@@H](CCCNC(=N)N)C(=O)N[C@@H](CC(C)C)C(=O)N[C@@H](CCC(N)=O)C(=O)N[C@H](C(=O)N[C@@H](Cc2ccc(O)cc2)C(=O)N2CCC[C@H]2C(=O)N[C@@H](CCCCN)C(=O)N[C@H](C(=O)N[C@@H](CC(=O)O)C(=O)N[C@H](C(=O)NCC(=O)N[C@@H](C)C(=O)N[C@@H](CC(N)=O)C(=O)N[C@@H](C)C(=O)N2CCC[C@H]2C(N)=O)C(C)C)[C@@H](C)O)[C@@H](C)O)NC(=O)[C@H]([C@@H](C)O)NC(=O)[C@H](CO)NC(=O)[C@H](CC(C)C)NC(=O)[C@H](CC(N)=O)NC(=O)[C@H](CO)NC1=O` [KBP-356] (Ac-CSNLSTC[Aib]LGK([AEEA-AEEA-γGlu-C18 diacid])LSQDLHRLQTYPKTDVGANAP-NH2; disulfide 1-7 (inferred)) was tested, and the “EC50 in competitive binding (in words)” value was “no differences in EC50”.
